In patent US8338429B2, “2-acylaminothiazole derivative or salt thereof” (Astellas Pharma, Inc., priority 2002, dated 2012):
Counter-ions that a name gives are not always drawn.

How the values were obtained:
[1] = tested on: human c-mpl-Ba/F3 cells; test: Oral administration test for mice (c-mpl-Ba/F3 proliferation activity of plasma); type: in vivo; conditions: male ICR mice, final plasma concentration 10%, maximum of each tested compound = 100%
Protocol: To male ICR mice, a tested compound dissolved or suspended in 0.5% methylcellulose aqueous solution was orally administrated in an amount of 100 mg/kg or 10 mg/kg. […] Plasma obtained by centrifugation at 12,000 rpm for 3 minutes was warmed up at 56° C. for 30 minutes, and added to the human c-mpl.Ba/F3 cell proliferation system described in (i) such that the final plasma concentration became 10%, and then cell proliferation activity was measured. The cell proliferation activity (%) of each plasma batch, when maximum cell proliferation activity of each tested compound was set to 100%, was calculated.

[2] = tested on: human c-mpl-Ba/F3 cells; test: Human c-mpl-Ba/F3 cell proliferation test; type: cell-based; conditions: for pot.: concentration promoting cell proliferation to 30% of maximum cell proliferation activity value of Example 9 (of rhTPO for rhTPO), 24 hours culture; for Efficacy: maximum cell proliferation activity, maximum of Example 9 (of rhTPO for rhTPO) set to 100%
Protocol: In a 96 well microplate, 2×10^5 cells/ml of human c-mpl-Ba/F3 cells were cultured at 37° C. for 24 hours with 10% fetal bovine serum containing a RPMI1640 medium (100 μl/well) to which varied concentrations of tested compounds were respectively added. After the culturing, 10 μl/well of WST-1/1-methoxy PMS (cell counting kit, Dojindo) were added. Immediately after the adding and after 2 hours, absorbance of A450/A650 was measured with a microplate reader (Model 3350:Bio-Rad), and the absorbance increase after 2 hours was regarded as proliferation activity of each tested compound.
pot.: Concentration of tested compound for promoting cell proliferation of the compound of Example 9 (compound of Example 9 and rhTPO in rhTPO) to 30% of maximum cell proliferation activity value.
Efficacy: Maximum cell proliferation activity value of tested compound when the maximum cell proliferation activity value of the compound of Example 9 (compound of Example 9 and rhTPO in rhTPO) is set to 100%.

[3] = tested on: Human CD34+ cells; test: Test for measuring effects of promoting the formation of megakaryocytic colonies; type: cell-based; conditions: megakaryocytic colonies per well, 10-14 days
Protocol: Human CD34^+ cells were cultured at 37° C. for 10-14 days in the presence of tested materials in a 2 well chamber slide, using MegaCult™-C (Stem Cell Technologies). In accordance with the attached instructions, dehydration, fixing, and staining with antihuman glycoprotein IIb/IIIa antibody were carried out. A group of 3 or more stained megakaryocytes was regarded as 1 colony, and the number of colonies per well was measured with a microscope. EC30 values of each tested compound were calculated from a capacity curve.

[4] = plasma 2 hours after 10 mg/kg p.o.
[5] = plasma 2 hours after 100 mg/kg p.o.

Row | Compound | Cell proliferation activity [1, 4] [%] | pot. [2] [nM] | Efficacy [2] [%] | EC30 [3] [nM] | Cell proliferation activity [1, 5] [%]
1 | O=C(Nc1nc(-c2cc(Cl)cs2)c(N2CCN(C3CCCCC3)CC2)s1)c1ccc2cnccc2c1 [Example 214, N-[4-(4-chlorothiophen-2-5-yl)-5-(4-cyclohexylpiperazin-1-yl)thiazol-2-yl]isoquinoline-6-carboxamide] | >80 | 15 | 106 |  | 
2 | rhTPO: thrombopoietin (TPO), a c-Mpl ligand playing an important role in differentiation into megakaryocytes |  | 0.012 | 100 |  | 
3 | O=C(Nc1nc(-c2cc(Cl)cs2)c(N2CCN(C3CCCCC3)CC2)s1)c1ccc(OCCO)c(Cl)c1 [Example 9, 3-chloro-N-[4-(4-chlorothiophen-2-yl)-5-(4-cyclohexylpiperazin-1-yl)thiazol-2-yl]-4-(2-hydroxyethoxy)benzamide hydrochloride] |  | 10 | 87 | 12 | 
4 | O=C(Nc1nc(-c2cc(Cl)cs2)c(N2CCN(C3CCCCC3)CC2)s1)c1cnc(OCCCO)c(Cl)c1 [Example 250, 5-chloro-N-[4-(4-chlorothiophen-2-yl)-5-(4-cyclohexylpiperazin-1-yl)thiazol-2-yl]-6-(3-hydroxypropoxy)nicotinamide] | >80 | 6.7 | 87 | 26 | 
5 | O=C1NC(=S)S/C1=C\c1ccc(C(=O)Nc2nc(-c3ccc(Cl)c(Cl)c3)cs2)cc1 [Control 1, reference compound] |  | 4.4 | 101 |  | <10
6 | Cl.O=C(Nc1nc(-c2cc(Cl)cs2)c(N2CCN(C3CCCCC3)CC2)s1)c1cnc(N2CCC(C(=O)O)CC2)c(Cl)c1 [Example 16, 1-(3-chloro-5-{[4-(4-chlorothiophen-2-yl)-5-(4-cyclohexylpiperzain-1-yl)thiazol-2-yl]carbamoyl}pyridin-2-yl)piperidine-4-carboxylic acid hydrochloride] | >80 | 2.4 | 93 |  | 
7 | Cc1sc(NC(=O)c2ccc(/C=C(\Cl)C(=O)O)cc2)nc1-c1cccc(C(F)(F)F)c1 [Control 3, reference compound] |  | 6.9 | 96 |  | <10
8 | CCCN1CCN(c2sc(NC(=O)c3ccc(OCCO)c(Cl)c3)nc2-c2cc(Cl)cs2)CC1 [Example 103, 3-chloro-N-[4-(4-chlorothiophen-2-yl)-5-(4-propylpiperazin-1-yl)thiazol-2-yl]-4-(2-hydroxyethoxy)benzamide] |  | 18 | 97 |  | 
9 | CCCC1CCN(c2sc(NC(=O)c3ccnc(OC)c3)nc2-c2cc(Cl)cs2)CC1 [Example 66] | 61 | 14 | 99 | 47 | 
10 | O=C(O)/C(Cl)=C/c1ccc(C(=O)Nc2nc(-c3ccc(Cl)c(Cl)c3)cs2)cc1 [Control 2, reference compound] |  | 2.1 | 96 |  | <10
